From patent publication US7105515B2, “Derivatives of sulphonamides, their preparation and use as medicaments” (Laboratories Del Dr. Esteve, S.A., priority 2001, dated 2006) come the findings set out here.

Counter-ions that a name gives are not always drawn.

As usually defined, the melting point is the temperature of the solid-liquid transition. As to `CN1CCC(c2c[nH]c3ccc(NS(=O)(=O)c4ccc(Cl)s4)cc23)CC1` [Example 14, N-[3-(1-methylpiperidin-4-yl)-1H-indol-5-yl]-5-chlorothiophene-2-sulphonamide], the melting point is 284 °C (dec.).

Regarding `CCN(CC)CCc1c[nH]c2ccc(NS(=O)(=O)c3cccc4ccccc34)cc12` (as salt: HCl) [Example 3, Hydrochloride N-[3-(2-diethylaminoethyl)-1H-indol-5-yl]naphthalene-1-sulphonamide], the melting point is 255 to 257 °C.

Turning to `CN1CCC(c2c[nH]c3ccc(NS(=O)(=O)c4cccc5ccccc45)cc23)CC1` (as salt: HCl) [Example 13, N-[3-(1-methylpiperidin-4-yl)-1H-indol-5-yl]naphthalene-1-sulphonamide hydrochloride], the melting point was 212 °C (dec.).

Consider `CCN(CC)CCc1c[nH]c2ccc(NS(=O)(=O)c3ccc(Cl)s3)cc12` [Example 6, N-[3-(2-diethylaminoethyl)-1H-indol-5-yl]-5-chlorothiophene-2-sulphonamide], for which the melting point lay in the range of 180 to 181 °C.

Turning to `CCN(CC)CCc1c[nH]c2ccc(NS(=O)(=O)c3sc4ccc(Cl)cc4c3C)cc12` [Example 1, N-[3-(2-diethylaminoethyl)-1H-indol-5-yl]-5-chloro-3-methylbenzo[b]thiophene-2-sulphonamide], the melting point was in the range of 170 to 173 °C.

Take `CN(C)CCc1c[nH]c2ccc(NS(=O)(=O)c3cccc4ccccc34)cc12` [Example 8, N-[3-(2-dimethylaminoethyl)-1H-indol-5-yl]naphthalene-1-sulphonamide]: the melting point was 203 to 205 °C.

`CN1CCC(c2c[nH]c3ccc(NS(=O)(=O)c4ccc(-c5ccccc5)cc4)cc23)CC1` [Example 15, N-[3-(1-methylpiperidin-4-yl)-1H-indol-5-yl]-4-phenylbenzenesulphonamide] gave a melting point of 247 to 248 °C.

With `CCN(CC)CCc1c[nH]c2ccc(NS(=O)(=O)c3ccc(-c4ccccc4)cc3)cc12` [Example 5, N-[3-(2-diethylaminoethyl)-1H-indol-5-yl]-4-phenylbenzenesulphonamide], the melting point lay within 161 to 163 °C.

Consider `CN1CCC(c2c[nH]c3ccc(NS(=O)(=O)c4cccc5cccnc45)cc23)CC1` [Example 16, N-[3-(1-methylpiperidin-4-yl)-1H-indol-5-yl]quinoline-8-sulphonamide], for which the melting point is 280 °C (dec.).

On to `Cc1c(S(=O)(=O)Nc2ccc3[nH]cc(CCN(C)C)c3c2)sc2ccc(Cl)cc12` [Example 7, N-[3-(2-dimethylaminoethyl)-1H-indol-5-yl]-5-chloro-3-methylbenzo[b]thiophene-2-sulphonamide], for which the melting point was in the range of 226 to 227 °C.

Regarding `CCN(CC)CCc1c[nH]c2ccc(NS(=O)(=O)c3cc(Cl)cc(Cl)c3)cc12` [Example 4, N-[3-(2-diethylaminoethyl)-1H-indol-5-yl]-3,5-dichlorobenzenesulphonamide], the melting point was 168 to 170 °C.

For the compound `CCN(CC)CCc1c[nH]c2ccc(NS(=O)(=O)c3ccc4ccccc4c3)cc12` [Example 17, N-[3-(2-diethylaminoethyl)-1H-indol-5-yl]naphthalene-2-sulphonamide], the melting point was in the range of 172 to 173 °C.
